Laboratory results published in patent US20170045513A1, “METHODS OF DIAGNOSING CELIAC DISEASE USING IP-10” (ImmusanT, Inc., priority 2014, published 2017).
Non-standard residues stand in square brackets, D forms with d. pGlu = O=C1CC[C@@H](C(=O)O)N1

Legend:
Type in all cases: cell-based, human
gluten-reactive T cells [1] = assay: 96-well plate whole blood cytokine release, IFNγ by MAGPIX multiplex bead assay; details: for IFNγ WB MAGPIX % max Mean: n = 8, blood after oral gluten challenge, individual peptides 5 μM (Peptide 2* of P14, Pepscan: 10 μg/mL (5.45 μM)); for Percent of maximal response to individual gluten peptides, IFNg: after oral gluten challenge
gluten-reactive T cells [2] = assay: Overnight IFNγ ELISpot assay with fresh PBMC; details: for IFNγ ELISpot % max Mean: n = 5, blood after oral gluten challenge, individual peptides 5 μM (Peptide 2* of P14, Pepscan: 10 μg/mL (5.45 μM)); for Percent of maximal response to individual gluten peptides, ELISp: after oral gluten challenge
Method: HLA-DQ2.5-positive celiac disease subjects on gluten-free diet were used in this study. Blood was collected immediately before and 6 days after commencing 3-day oral gluten challenge. Whole blood or PBMCs were incubated with pools or single peptides derived from gluten or recall antigens. IFNγ and IP-10 levels were measured in plasma from the whole blood that was incubated in 96-well plates with peptides or peptide pools. Plasma cytokine/chemokine levels were measured by MAGPIX® multiplex bead assay (IFNγ and IP-10) or by ELISA (IFNγ and IP-10), and PBMC separated from the same blood sample were incubated in overnight IFNγ ELISpot assays.
Overnight IFNγ ELISpot assays (Human IFN-γ ELISpotPRO kit, transparent, ALP; Mabtech AB, #3420-2APT-10) were performed using PBMC freshly separated from heparinized blood diluted 1:1 in PBS with 2% fetal bovine serum (Stemcell Technologies #07905; Vancouver, BC, V5Z 1B3, Canada) overlaid on density gradient medium (Ficoll-Paque™ PLUS; GE Healthcare Lice Sciences #:17-1440-02) in SepMate™-50 tubes (Stemcell Technologies #15460). PBMC (8 million/mL) were resuspended in serum-free medium with gentamicin and phenol red (X-VIVO™15; Lonza, Walkersville Mass. 21793). PBMC (0.4 million/50 pt/well) and incubated with 50 μL 80% X-vivo15, 0.2% DMSO and 20% PBS in three triplicate wells (“medium only”), or with 50 μL PHA-L 20 μg/ml or peptide at 2× final concentration in 80% X-vivo15, 0.2% DMSO and 20% PBS. Peptide solutions to be added to individual ELISpot wells were prepared in 96-well U-bottom plates (60 pt/well) that were then sealed with adhesive ELISA plate cover slips before replacing the plastic lid and being frozen at −80° C. 96-well plates containing peptide solutions were thawed at room temperature for 10 min while being centrifuged at 300 g immediately prior to being added to ELISpot wells. Peptide pools and mitogen were assessed in triplicate wells, and individual peptides were assessed in duplicate wells. X-VIVO™15 (50 μL) was incubated with 80% X-vivo15, 0.2% DMSO and 20% PBS (50 μL) in triplicate wells (“no PBMC” control). A Zeiss automated ELISpot counter was used to determine spot forming units (SFU) per well (Zellnet Inc., Fort Lee, N J 07024). Laboratory staff were unaware of the arrangement of peptide solutions in ELISpot wells during assay setup and plate counting.

gluten-reactive T cells [3] = assay: 96-well plate whole blood cytokine release, IP-10 by MAGPIX multiplex bead assay; details: for Percent of maximal response to individual gluten peptides, IP-10: after oral gluten challenge; for IP-10 WB MAGPIX % max Mean: n = 10, blood after oral gluten challenge, individual peptides 5 μM (Peptide 2* of P14, Pepscan: 10 μg/mL (5.45 μM))
gluten-reactive T cells [4] = assay: Cytokine release assays taken together (IFNγ ELISpot, whole blood IFNγ and IP-10, in-tube IFNγ ELISA)
Method: Gluten peptide solutions for addition to whole blood were arranged according to standardized templates in sterile 96-well U-bottom plates (30 μL/well). Plates were sealed with adhesive ELISA plate cover slips before the plastic lid was replaced and being frozen at −80° C. Whole blood assay (WBA) “medium” (1% DMSO in 90% PBS and 9% normal saline), mitogen (PHA-L, Sigma-Aldrich #L2769; St Louis Mo.) 100 μg/ml in WBA medium, and CEF diluted to 10 μg/ml in PBS with a final concentration of 1% DMSO were frozen separately in sterile cryovials. 96-well plates and cryovials with frozen incubation solutions were shipped on dry ice to the clinical site where blood was collected and incubations performed. Solutions were thawed at room temperature for 10 min just before being added to whole blood. 96-well plates were thawed while being centrifuged at 300 g to avoid surface condensation. A multi-channel pipette was used to efficiently transfer 25 μL of peptide solutions from the original 96-well plate to corresponding wells in a fresh sterile 96-well U-bottom plate. Once incubation solutions had been added, 225 μL of whole blood was added to each well and the plate transferred to incubate for 24 h at 37° C. 5% CO2. […] Individual peptides were incubated at a final assay concentration of 51.1M. Final concentrations of individual peptides assessed in P3 was 0.05-50 μg/mL, and in P14 and P13 pools 0.025-25 μM. The P71 pool was tested at between 0.005-10 pg/mL, the highest tested concentration being the maximal possible not exceeding 0.1% DMSO. Peptide pools, mitogen, and medium only were assessed in triplicate wells, and on Day-6 individual peptides were assessed in duplicate wells. Incubations were terminated after 24 h, and 96-well plates centrifuged at 300 g for 10 min. A total of approximately 90 to 120 μL of plasma was removed from each well taking care to avoid red cell contamination, and transferred into corresponding wells of two further 96-well plates (one with 30 μL/well and the residual in the second plate). Plasmas were frozen at −80° C. and later shipped on dry ice to the central lab where IP-10 and IFNγ multiplex bead assays were performed according to manufacturer's instructions using 25 μL plasma per well (Milliplex® MAP Human Cytokine/Chemokine Magnetic Bead Panel #HCYTOMAG-60k-02; EMD Millipore Corp., Billerica, Mass. 01821) and analysed with the Luminex® MAGPIX® System xPONENT® software (Luminex Corporation, Austin Tex. 78727). Plasma cytokine levels for each assay condition were expressed as the mean analyte concentration of each of the three replicate incubations. Laboratory staff were unaware of the arrangement of peptide solutions incubated with during assay setup and plate counting.
Aliquots of PBS, P3 peptides diluted in PBS (final concentration in blood 3× 50 or CEF to a final concentration 1 μg/mL were prepared in sterile cryovials (0.11 mL/vial) and stored frozen (−80° C.) until immediately before use. P3, CEF and two PBS aliquots were drawn up in separate sterile 0.3 mL insulin syringes with attached 29G×½″ needle (Terumo, SS*30M2913; Elkton Md. 21921). P3, CEF and one PBS aliquot was injected through the stoppers of three separate QuantiFERON® NIL tubes already containing 1 mL blood, and one aliquot of PBS was injected into a QuantiFERON® MITOGEN tube already containing 1 mL blood. All four tubes containing blood and incubation solution were gently inverted ten-times and transferred to incubate at 37° C. 5% CO2. After for 24 h, tubes were centrifuged 300 g 10 min. Plasma was separated and equal volumes placed in two 1.5 mL cryovials. Frozen plasmas were transferred to the central lab where IFNγ levels were measured in triplicate 50 μL samples by ELISA (MABtech Human IFN-γ ELISA development kit HRP, 3420-1H-6; capture mAb 1-D1K). […]

Q: How did the “IFNγ WB MAGPIX % max Mean” value (gluten-reactive T cells [1]) turn out when “(pE)QPFPQPEQPFPWQP-amide ([pGlu]QPFPQPEQPFPWQP-NH2; SMILES NC(=O)CC[C@H](NC(=O)[C@H](Cc1c[nH]c2ccccc12)NC(=O)[C@@H]1CCCN1C(=O)[C@H](Cc1ccccc1)NC(=O)[C@@H]1CCCN1C(=O)[C@H](CCC(N)=O)NC(=O)[C@H](CCC(=O)O)NC(=O)[C@@H]1CCCN1C(=O)[C@H](CCC(N)=O)NC(=O)[C@@H]1CCCN1C(=O)[C@H](Cc1ccccc1)NC(=O)[C@@H]1CCCN1C(=O)[C@H](CCC(N)=O)NC(=O)[C@@H]1CCC(=O)N1)C(=O)N1CCC[C@H]1C(N)=O) [Peptide 2, two preparations tested separately: CSBio (5 μM) and Pepscan re-synthesis (10 μg/mL)]” was run?
A: 23 % max

Q: What about the “IFNγ WB MAGPIX % max Mean” value (gluten-reactive T cells [1]; listed as Peptide 2*) of the same substance?
A: 27 % max

Q: And the “IFNγ ELISpot % max Mean” value (gluten-reactive T cells [2])?
A: 19 % max

Q: And the “IFNγ ELISpot % max Mean” value (gluten-reactive T cells [2]; listed as Peptide 2*)?
A: 25 % max

Q: What about the “Percent of maximal response to individual gluten peptides, IP-10” value (“Percent of maximal response … IP-10” below) (gluten-reactive T cells [3]; Subject 3, Max. 9492 pg/mL) of the same substance?
A: ≥ 100 % of max

Q: What about the “Percent of maximal response … IP-10” value (gluten-reactive T cells [3]; Subject 4, Max. 9463 pg/mL) of the same substance?
A: ≥ 100 % of max

Q: And the “IP-10 WB MAGPIX % max Mean” value (gluten-reactive T cells [3])?
A: 43 % max

Q: What about the “IP-10 WB MAGPIX % max Mean” value (gluten-reactive T cells [3]; listed as Peptide 2*) of the same substance?
A: 49 % max

Q: What about the “activity relative to Peptide 14 in the cytokine release assays” value (gluten-reactive T cells [4]; blood collected after oral gluten challenge) of the same substance?
A: approximately one-half to one-fifth as active as Peptide 14

Q: For “(pE)GQQGYYPTSPQQSG-amide ([pGlu]GQQGYYPTSPQQSG-NH2; SMILES C[C@@H](O)[C@H](NC(=O)[C@@H]1CCCN1C(=O)[C@H](Cc1ccc(O)cc1)NC(=O)[C@H](Cc1ccc(O)cc1)NC(=O)CNC(=O)[C@H](CCC(N)=O)NC(=O)[C@H](CCC(N)=O)NC(=O)CNC(=O)[C@@H]1CCC(=O)N1)C(=O)N[C@@H](CO)C(=O)N1CCC[C@H]1C(=O)N[C@@H](CCC(N)=O)C(=O)N[C@@H](CCC(N)=O)C(=O)N[C@@H](CO)C(=O)NCC(N)=O) [Peptide 10]”, which “Percent of maximal response to individual gluten peptides, IFNg” value (“Percent of maximal response … IFNg” for short) (gluten-reactive T cells [1]; Subject 2, Max. 116 pg/mL) is on record?
A: 23 % of max

Q: What about the “Percent of maximal response … IFNg” value (gluten-reactive T cells [1]; Subject 3, Max. 799 pg/mL) of the same substance?
A: 0 % of max

Q: What about the “Percent of maximal response … IFNg” value (gluten-reactive T cells [1]; Subject 4, Max. 136 pg/mL) of the same substance?
A: 0 % of max

Q: And the “Percent of maximal response … IFNg” value (gluten-reactive T cells [1]; Subject 6, Max. 72 pg/mL)?
A: 0 % of max

Q: And the “Percent of maximal response … IFNg” value (gluten-reactive T cells [1]; Subject 7, Max. 17 pg/mL)?
A: 0 % of max

Q: And the “Percent of maximal response … IFNg” value (gluten-reactive T cells [1]; Subject 8, Max. 47 pg/mL)?
A: 0 % of max

Q: And the “Percent of maximal response … IFNg” value (gluten-reactive T cells [1]; Subject 9, Max. 67 pg/mL)?
A: 0 % of max

Q: What about the “Percent of maximal response … IFNg” value (gluten-reactive T cells [1]; Subject 10, Max. 229 pg/mL) of the same substance?
A: 9 % of max

Q: What about the “IFNγ WB MAGPIX % max Mean” value (gluten-reactive T cells [1]) of the same substance?
A: 4 % max

Q: What about the “Percent of maximal response to individual gluten peptides, ELISp” value (shortened to “Percent of maximal response … ELISp”) (gluten-reactive T cells [2]; Subject 3, Max. 18 SFU) of the same substance?
A: 17 % of max

Q: What about the “Percent of maximal response … ELISp” value (gluten-reactive T cells [2]; Subject 4, Max. 36 SFU) of the same substance?
A: 3 % of max

Q: What about the “Percent of maximal response … ELISp” value (gluten-reactive T cells [2]; Subject 8, Max. 17 SFU) of the same substance?
A: 0 % of max

Q: What about the “Percent of maximal response … ELISp” value (gluten-reactive T cells [2]; Subject 10, Max. 11 SFU) of the same substance?
A: 9 % of max

Q: What about the “IFNγ ELISpot % max Mean” value (gluten-reactive T cells [2]) of the same substance?
A: 8 % max

Q: And the “Percent of maximal response … IP-10” value (gluten-reactive T cells [3]; Subject 1, Max. 2331 pg/mL)?
A: 0 % of max

Q: And the “Percent of maximal response … IP-10” value (gluten-reactive T cells [3]; Subject 2, Max. 3646 pg/mL)?
A: 0 % of max

Q: And the “Percent of maximal response … IP-10” value (gluten-reactive T cells [3]; Subject 3, Max. 9492 pg/mL)?
A: 0 % of max

Q: What about the “Percent of maximal response … IP-10” value (gluten-reactive T cells [3]; Subject 4, Max. 9463 pg/mL) of the same substance?
A: 0 % of max

Q: And the “Percent of maximal response … IP-10” value (gluten-reactive T cells [3]; Subject 6, Max. 5863 pg/mL)?
A: 0 % of max

Q: And the “Percent of maximal response … IP-10” value (gluten-reactive T cells [3]; Subject 7, Max. 2330 pg/mL)?
A: 0 % of max

Q: And the “Percent of maximal response … IP-10” value (gluten-reactive T cells [3]; Subject 10, Max. 8922 pg/mL)?
A: 9 % of max

Q: And the “IP-10 WB MAGPIX % max Mean” value (gluten-reactive T cells [3])?
A: 1 % max

Q: And the “cytokine release / immunogenicity of individual peptide” value (gluten-reactive T cells [4]; HLA-DQ2.5+ celiac disease subjects after gluten challenge)?
A: weak or not distinguishable from medium alone
